Measured values published in BindingDB's records for doi:10.1016/0960-894X(95)00417-R (1995).

Tests used:
[1] = Tested in vitro for receptor binding affinity to 5-hydroxytryptamine 1D receptor in bovine caudate using [3H]5-HT radioligand
[2] = Compound was tested for the inhibition of forskolin-stimulated adenylate cyclase at 5-hydroxytryptamine 1A receptor in guinea pig

Row | Structure (SMILES) | IC50 [1] | EC50 [2]
1 | CN1CCC[C@@H]1Cc1c[nH]c2ccc(-n3cnc4cc(C#N)ccc43)cc12 [CP-161242] | 1.3 nM | 26 nM
2 | CN(C)CCc1c[nH]c2ccc(-n3cnc4cccnc43)cc12 [[2-(5-Imidazo[4,5-b]pyridin-3-yl-1H-indol-3-yl)-ethyl]-dimethyl-amine] | 11 nM | 460 nM
